From patent US4547371A, “Substituted cephalosporin sulfones as anti-inflammatory and anti-degenerative agents” (Merck & Co., Inc., priority 1983, dated 1985)

Biological target: T1, Human Polymorphonuclear Leukocyte Elastase (Homo sapiens, UniProt P08246)
T1 construct: Crude extract of human polymorphonuclear leukocytes (PMN) containing elastase activity; endogenous in cells; host or cells: human polymorphonuclear leukocytes (crude extract)
T1 sequence (P08246 30-247 limits assumed): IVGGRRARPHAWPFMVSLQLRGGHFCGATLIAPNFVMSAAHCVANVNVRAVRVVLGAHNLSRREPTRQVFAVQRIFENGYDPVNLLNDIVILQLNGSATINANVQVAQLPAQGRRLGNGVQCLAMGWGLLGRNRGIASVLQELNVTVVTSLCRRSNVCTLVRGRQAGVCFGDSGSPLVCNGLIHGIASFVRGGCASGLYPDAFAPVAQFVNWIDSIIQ
Experiment: Inhibition of human polymorphonuclear leukocyte elastase via hydrolysis of N-t-Boc-alanyl-alanyl-prolyl-alanine-p-nitroanilide
Type: biochemical
Conditions: effective dosage for 50% inhibition of the enzyme activity 2 minutes after zero time; crude human PMN extract, Boc-AAPAN substrate, pH 7.5, 410 mμ; read-out: ED50 (the source's name) (converted)
Method: Protocol--Enzyme Assays for the Inhibition of Human Polymorphonuclear Leukocyte Elastase Via Hydrolysis of N-t-Boc-alanyl-alanyl-prolylalanine-p-nitroanilide
0.05M TES (N-tris[hydroxymethyl]methyl-2-amino-ethanesulfonic acid) Buffer, pH 7.5.
0.2 mM N-t-Boc-alanyl-alanyl-prolyl-alanine-p-nitroanilide (Boc-AAPAN).
To prepare substrate, the solid (m.w. 550) was first dissolved in 10.0 ml DMSO. Buffer at pH 7.5 was then added to a final volume of 100 ml.
Crude extract of human polymorphonuclear leukocytes (PMN) containing elastase activity.
Inhibitors (cephalosporin sulfone esters) to be tested dissolved in DMSO just before use.
To 1.0 ml of 0.2 mM Boc-AAPAN in a cuvette, 0.01-0.1 ml of DMSO with or without inhibitor was added. After mixing, a measurement was taken at 410 mμ to detect any spontaneous hydrolysis due to presence of test compound. 0.05 Milliliters of PMN extract was then added and the ΔOD /min at 410 mμ was measured and recorded. Beckman model 35 spectrophotometer was used.
Results were reported as ED50, i.e., effective dosage in micrograms per milliliter (μg/ml) for 50% inhibition of the enzyme activity 2 minutes after zero time.
The elastase activity in the crude PMN extract may vary from one preparation to another. A control of each new batch is run, and the volume added in the assay procedure is adjusted according to activity.

IC50 [nM]	SMILES
61.7	O=C(OCc1ccccc1)C1=C(C(F)(F)F)CS(=O)(=O)[C@@H]2[C@@H](NC(=O)C(F)(F)F)C(=O)N12 (relative stereo) [CF3 CONH / CF3 / OCH2 .phi., Benzyl 3-trifluoromethyl-7α-trifluoromethylcarbonylamino-8-oxo-5-thia-1-azabicyclo[4.2.0]oct-2-ene-2-carboxylate-5,5-dioxide]
1770	CC(C)(C)OC(=O)C1=C(C(F)(F)F)CS(=O)(=O)[C@@H]2[C@@H](NC(=O)C(F)(F)F)C(=O)N12 (relative stereo) [CF3 CONH / CF3 / OtBu, t-Butyl 3-trifluoromethyl-7α-trifluoromethylcarbonylamino-8-oxo-5-thia-1-azabicyclo[4.2.0]oct-2-ene-2-carboxylate-5,5-dioxide]
81.6	CC(=O)OCC1=C(C(=O)OCc2ccccc2)N2C(=O)[C@H](NC(=O)C(F)(F)F)[C@H]2S(=O)(=O)C1 [NHCOCF3 / CH2 OCOCH3 / OCH2 .phi., Benzyl 3-acetyloxymethyl-7α-trifluoromethylcarbonylamino-8-oxo-5-thia-1-azabicyclo[4.2.0]oct-2-ene-2-carboxylate-5,5-dioxide]
663	COC(=O)N[C@H]1C(=O)N2C(C(=O)OCc3ccccc3)=C(COC(C)=O)CS(=O)(=O)[C@H]12 [NHCOOCH3 / CH2 OCOCH3 / OCH2 .phi., benzyl 3-acetyloxymethyl-7α-methoxycarbonylamino-8-oxo-5-thia-1-azabicyclo[4.2.0]oct-2-ene-2-carboxylate-5,5-dioxide]
